Where a name gives a salt, the structure may show the parent alone. Read-outs that look alike come from different tables or passages of the source.

This experiment has as its target purified human Factor XIa (Homo sapiens (Human), UniProt P03951). The experiment can be described thus: Factor XIa enzyme inhibition assay (chromogenic substrate S-2366).
Where [1] appears, read: read-out: Factor XIa Ki, measured at 25° C.

Chain of purified human Factor XIa (P03951 388-625): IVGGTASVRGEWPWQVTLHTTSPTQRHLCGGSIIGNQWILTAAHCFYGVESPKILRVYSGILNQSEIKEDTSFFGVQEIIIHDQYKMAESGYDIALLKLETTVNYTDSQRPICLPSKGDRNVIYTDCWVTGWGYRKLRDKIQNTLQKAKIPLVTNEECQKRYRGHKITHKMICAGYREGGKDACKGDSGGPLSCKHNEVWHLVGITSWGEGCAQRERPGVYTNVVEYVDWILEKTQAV
Chain of purified human Factor XIa (P03951 19-387 partner): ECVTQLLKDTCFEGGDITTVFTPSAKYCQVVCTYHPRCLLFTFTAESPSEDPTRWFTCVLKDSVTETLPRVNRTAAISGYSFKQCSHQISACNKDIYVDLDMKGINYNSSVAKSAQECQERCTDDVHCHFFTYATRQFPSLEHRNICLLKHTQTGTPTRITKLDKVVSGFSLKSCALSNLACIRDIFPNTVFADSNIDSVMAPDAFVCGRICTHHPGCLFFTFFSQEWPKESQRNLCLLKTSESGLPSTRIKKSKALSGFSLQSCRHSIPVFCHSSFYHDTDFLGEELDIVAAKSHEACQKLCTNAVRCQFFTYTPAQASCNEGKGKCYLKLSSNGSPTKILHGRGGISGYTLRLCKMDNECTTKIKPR

Consider `O=C(O)c1ccc(NC(=O)[C@@H]2c3cccc(N4CCC(O)CC4)c3CCN2C(=O)c2cn(-c3cccc(Cl)c3F)nn2)cc1` [Example 86, (S)-4-(2-(1-(3-chloro-2-fluorophenyl)-1H-1,2,3-triazole-4-carbonyl)-5-(4-hydroxypiperidin-1-yl)-1,2,3,4-tetrahydroisoquinoline-1-carboxamido)benzoic acid, TFA salt], for which, under setting [1], the Ki was under 5 nM.
Still for that read-out and setting: to `O=C(N[C@H]1CC[C@@H](C(=O)O)CC1)C1c2cccc(-c3cncnc3)c2CCN1C(=O)c1cn(-c2cccc(Cl)c2F)nn1` (stereo partly drawn) [Example 133, (1R,4R)-4-(2-(1-(3-chloro-2-fluorophenyl)-1H-1,2,3-triazole-4-carbonyl)-5-(pyrimidin-5-yl)-1,2,3,4-tetrahydroisoquinoline-1-carboxamido) cyclohexanecarboxylic acid] belongs 12.6 nM; to `Cn1ncc2c(-c3cccc4c3CCN(C(=O)c3cn(-c5cccc(Cl)c5F)nn3)C4C(=O)Nc3ccc(C(=O)O)cc3)cccc21` (stereo not drawn) [Example 169, 4-(2-(1-(3-chloro-2-fluorophenyl)-1H-1,2,3-triazole-4-carbonyl)-5-(1-methyl-1H-indazol-4-yl)-1,2,3,4-tetrahydroisoquinoline-1-carboxamido)benzoic acid], under 5 nM; to `O=C(O)c1ccc(NC(=O)[C@H]2c3ccccc3CCN2C(=O)c2cn(-c3cccc(Cl)c3F)nn2)cc1` [Example 2, (R)-4-(2-(1-(3-Chloro-2-fluorophenyl)-1H-1,2,3-triazole-4-carbonyl)-1,2,3,4-tetrahydroisoquinoline-1-carboxamido)benzoic acid], 5580 nM.
Regarding `O=C(O)c1ccc(NC(=O)C2c3cccc(-c4cccc(-c5ccn[nH]5)c4)c3CCN2C(=O)c2cn(-c3cccc(Cl)c3F)nn2)cc1` (stereo not drawn) [Example 164, 4-(5-(3-(1H-pyrazol-5-yl)phenyl)-2-(1-(3-chloro-2-fluorophenyl)-1H-1,2,3-triazole-4-carbonyl)-1,2,3,4-tetrahydroisoquinoline-1-carboxamido)benzoic acid], the inhibitory constant (Ki) under setting [1] stood at 9.17 nM.
The molecule `COc1ncc(-c2cccc3c2CCN(C(=O)c2cn(-c4cccc(Cl)c4F)nn2)C3C(=O)Nc2ccc(C(=O)O)cc2)c(OC)n1` (stereo not drawn) [Example 158, 4-(2-(1-(3-chloro-2-fluorophenyl)-1H-1,2,3-triazole-4-carbonyl)-5-(2,4-dimethoxypyrimidin-5-yl)-1,2,3,4-tetrahydroisoquinoline-1-carboxamido)benzoic acid] returned a Ki of under 5 nM.
For `O=C(O)c1ccc(NC(=O)[C@H]2c3cccc(N4CCC(O)CC4)c3CCN2C(=O)c2cn(-c3cccc(Cl)c3F)nn2)cc1` [Example 87, (R)-4-(2-(1-(3-chloro-2-fluorophenyl)-1H-1,2,3-triazole-4-carbonyl)-5-(4-hydroxypiperidin-1-yl)-1,2,3,4-tetrahydroisoquinoline-1-carboxamido)benzoic acid, TFA salt], the Ki under setting [1] was 43 nM.
Still for that read-out and setting: with `COC1CCN(c2cccc3c2CCN(C(=O)c2cc(-c4ccccc4Cl)no2)C3C(=O)Nc2ccc(C(=O)O)cc2)CC1` (stereo not drawn) [Example 148, 4-(2-(3-(2-chlorophenyl)isoxazole-5-carbonyl)-5-(4-methoxypiperidin-1-yl)-1,2,3,4-tetrahydroisoquinoline-1-carboxamido)benzoic acid, TFA salt] the figure was 69.5 nM; with “4-(2-(1-(3-chloro-2- fluorophenyl)-5-hydroxy- 1H-pyrazole-4-carbonyl)-5- (4-methylpiperazin-1-yl)- 1,2,3,4- tetrahydroisoquinoline-1- carboxamido)benzoic acid, 2 TFA salt. [Example 214]”, 713 nM.
Same read-out and setting: with `O=C(O)c1ccc(NC(=O)C2c3cccc(N4CCOCC4=O)c3CCN2C(=O)[C@H]2CC(c3cccc(Cl)c3F)=NO2)cc1` (stereo in doubt) [Example 290, 4-((S)-2-((R)-3-(3-chloro-2-fluorophenyl)-4,5-dihydroisoxazole-5-carbonyl)-5-(3-oxomorpholino)-1,2,3,4-tetrahydroisoquinoline-1-carboxamido)benzoic acid] the figure was 13.4 nM.
As to `COC1CCN(c2cccc3c2CCN(C(=O)C2CCN(c4cccc(Cl)c4)C2)C3C(=O)Nc2ccc(C(=O)O)cc2)CC1` (stereo not drawn) [Example 261, 4-(2-(1-(3-chlorophenyl)pyrrolidine-3-carbonyl)-5-(4-methoxypiperidin-1-yl)-1,2,3,4-tetrahydroisoquinoline-1-carboxamido)benzoic acid, TFA salt], where the note is “read-out: Factor XIa Ki, measured at 25° C., TFA salt”, the Ki turned out to be 948 nM.
`O=C(O)c1ccc(NC(=O)C2c3cccc(-c4ccc5occc(=O)c5c4)c3CCN2C(=O)c2cn(-c3cccc(Cl)c3F)nn2)cc1` (stereo not drawn) [Example 175, 4-(2-(1-(3-chloro-2-fluorophenyl)-1H-1,2,3-triazole-4-carbonyl)-5-(4-oxo-4H-chromen-6-yl)-1,2,3,4-tetrahydroisoquinoline-1-carboxamido)benzoic acid]: under setting [1], the Ki is under 5 nM.
Still for that read-out and setting: to `CC1(O)CCN(c2cccc3c2CCN(C(=O)c2cnn(-c4cccc(Cl)c4F)c2)C3C(=O)Nc2ccc(C(=O)O)cc2)CC1` (stereo not drawn) [Example 68, 4-(2-(1-(3-chloro-2-fluorophenyl)-1H-pyrazole-4-carbonyl)-5-(4-hydroxy-4-methylpiperidin-1-yl)-1,2,3,4-tetrahydroisoquinoline-1-carboxamido)benzoic acid, TFA salt] belongs under 5 nM; to `O=C(O)c1ccc(NC(=O)[C@@H]2c3cccc(N4CCOCC4=O)c3CCN2C(=O)[C@H]2CC(c3cccc(Cl)c3F)=NO2)cc1` [Example 289, 4-((S)-2-((R)-3-(3-chloro-2-fluorophenyl)-4,5-dihydroisoxazole-5-carbonyl)-5-(3-oxomorpholino)-1,2,3,4-tetrahydroisoquinoline-1-carboxamido)benzoic acid,], under 5 nM.
On the same count and under the same terms, with `O=C(O)c1ccc(NC(=O)C2c3cccc(-c4ccc5c(c4)CCNC5)c3CCN2C(=O)c2cn(-c3cccc(Cl)c3F)nn2)cc1` (stereo not drawn) [Example 40, 4-(2-(1-(3-chloro-2-fluorophenyl)-1H-1,2,3-triazole-4-carbonyl)-1,1′,2,2′,3,3′,4,4′-octahydro-[5,6′-biisoquinoline]-1-carboxamido)benzoic acid, TFA salt] the figure was under 5 nM; with `CNC(=O)c1ccc(-c2cccc3c2CCN(C(=O)c2cn(-c4cccc(Cl)c4F)nn2)C3C(=O)Nc2ccc(C(=O)O)cc2)cn1` (stereo not drawn) [Example 166, 4-(2-(1-(3-chloro-2-fluorophenyl)-1H-1,2,3-triazole-4-carbonyl)-5-(6-(methylcarbamoyl)pyridin-3-yl)-1,2,3,4-tetrahydroisoquinoline-1-carboxamido)benzoic acid, TFA salt], under 5 nM; with `COC1CCN(c2cccc3c2CCN(C(=O)C2CCN(c4ccc(OC(C)C)cc4)C2=O)C3C(=O)Nc2ccc(C(=O)O)cc2)CC1` (stereo not drawn) [Example 149, 4-(2-(1-(4-isopropoxyphenyl)-2-oxopyrrolidine-3-carbonyl)-5-(4-methoxypiperidin-1-yl)-1,2,3,4-tetrahydroisoquinoline-1-carboxamido)benzoic acid, TFA salt], 7160 nM.
On to `Cn1ncc2ccc(-c3cccc4c3CCN(C(=O)c3cn(-c5cccc(Cl)c5F)nn3)C4C(=O)Nc3ccc(C(=O)O)cc3)cc21` (stereo not drawn) [Example 170, 4-(2-(1-(3-chloro-2-fluorophenyl)-1H-1,2,3-triazole-4-carbonyl)-5-(1-methyl-1H-indazol-6-yl)-1,2,3,4-tetrahydroisoquinoline-1-carboxamido)benzoic acid], for which, under setting [1], the Ki is under 5 nM.
With `COc1cccc(-c2cccc3c2CCN(C(=O)c2cn(-c4cccc(Cl)c4F)nn2)C3C(=O)Nc2ccc(C(=O)O)cc2)c1F` (stereo not drawn) [Example 180, 4-(2-(1-(3-chloro-2-fluorophenyl)-1H-1,2,3-triazole-4-carbonyl)-5-(2-fluoro-3-methoxyphenyl)-1,2,3,4-tetrahydroisoquinoline-1-carboxamido)benzoic acid], the affinity, expressed as Ki, was 5.2 nM.
In the case of `COC(=O)C12CCC(NC(=O)C3c4cccc(-c5cncnc5)c4CCN3C(=O)c3cn(-c4cccc(Cl)c4F)nn3)(CC1)CC2` (stereo not drawn) [Example 142, Methyl 4-(2-{[1-(3-chloro-2-fluorophenyl)-1H-1,2,3-triazol-4-yl]carbonyl}-5-(pyrimidin-5-yl)-1,2,3,4-tetrahydroisoquinoline-1-amido)bicyclo[2.2.2]octane-1-carboxylate, TFA salt], under setting [1], the Ki amounted to 56.2 nM.
On the same count and under the same terms, with `NCc1cccc(-c2cccc3c2CCN(C(=O)c2cn(-c4cccc(Cl)c4F)nn2)C3C(=O)Nc2ccc(C(=O)O)cc2)c1` (stereo not drawn) [Example 173, 4-(5-(3-(aminomethyl)phenyl)-2-(1-(3-chloro-2-fluorophenyl)-1H-1,2,3-triazole-4-carbonyl)-1,2,3,4-tetrahydroisoquinoline-1-carboxamido)benzoic acid, TFA salt] the figure was under 5 nM; with `O=C(O)c1ccc(NC(=O)C2c3cccc(-c4ccc5nccnc5c4)c3CCN2C(=O)c2cn(-c3cccc(Cl)c3F)nn2)cc1` (stereo not drawn) [Example 174, 4-(2-(1-(3-chloro-2-fluorophenyl)-1H-1,2,3-triazole-4-carbonyl)-5-(quinoxalin-6-yl)-1,2,3,4-tetrahydroisoquinoline-1-carboxamido)benzoic acid], under 5 nM.
On the same count and under the same terms, to `O=C(O)c1ccc(NC(=O)C2c3cccc(-c4ccc(S(=O)(=O)NC5CC5)cc4)c3CCN2C(=O)c2cn(-c3cccc(Cl)c3F)nn2)cc1` (stereo not drawn) [Example 176, 4-(2-(1-(3-chloro-2-fluorophenyl)-1H-1,2,3-triazole-4-carbonyl)-5-(4-(N-cyclopropylsulfamoyl)phenyl)-1,2,3,4-tetrahydroisoquinoline-1-carboxamido)benzoic acid] belongs under 5 nM; to `O=C(O)c1ccc(NC(=O)[C@H]2c3cccc(N4CCN(C5COC5)CC4)c3CCN2C(=O)[C@H]2CC(c3cccc(Cl)c3F)=NO2)cc1` [Example 228, 4-((R)-2-((R)-3-(3-Chloro-2-fluorophenyl)-4,5-dihydroisoxazole-5-carbonyl)-5-(4-(oxetan-3-yl)piperazin-1-yl)-1,2,3,4-tetrahydroisoquinoline-1-carboxamido)benzoic acid, 2 TFA salt], under 5 nM.

A word on the Ki: it is a measure of affinity in units of concentration, obtained from inhibition or displacement.

Values taken from patent US9738655B2, “Tetrahydroisoquinolines containing substituted azoles as factor XIa inhibitors” (BRISTOL-MYERS SQUIBB COMPANY, priority 2013, dated 2017).
